Data from patent publication US20190330197A1, “SUBSTITUTED NAPHTHALENE DIIMIDES AND THEIR USE” (UCL Business PLC, priority 2015, published 2019).

Columns and labels:
[1] = system: human telomeric (F21T) G-quadruplex DNA; assay: FRET quadruplex stabilisation assay, F21T; assay type: binding; conditions: compound at 1 μM, 60 mM potassium cacodylate buffer pH 7.4
Excerpt: (§1) The ability of the naphthalene diimide compounds to stabilize quadruplex DNA sequences was investigated using a fluorescence resonance energy transfer (FRET) assay modified to be used as a high-throughput screen in a 96-well format. Several quadruplex sequences were studied (including the human telomeric G-quadruplex DNA sequence 5′-FAM-d(GGG[TTAGGG]3)-TAMRA-3′ and the duplex sequence 5′-FAM-d[…]-HEG-[…]-TAMRA-3′ (HEG linker: [(—CH2—CH2—O—)6.
(§2) The labelled oligonucleotides have attached to them the donor fluorophore FAM: 6-carboxyfluorescein and the acceptor fluorophore TAMRA: 6-carboxytetramethylrhodamine. The FRET probe sequences were diluted from stock to the correct concentration (400 nM) in a 60 mM potassium cacodylate buffer (pH 7.4) and then annealed by heating to 85° C. for 10 min, followed by cooling to room temperature in the heating block. The compound was stored as a 10 mM stock solution in DMSO; final solutions (at 2× concentration) were prepared using 10 mM HCl in the initial 1:10 dilution, after which 60 mM potassium cacodylate buffer (pH 7.4) was used in all subsequent steps. The maximum HCl concentration in the reaction volume (at a ligand concentration of 20 μM) is thus 200 μM, well within the range of the buffer used. Relevant controls were also performed to check for interference with the assay. 96-Well plates (MJ Research, Waltham, Mass.) were prepared by aliquoting 50 μl of the annealed DNA into each well, followed by 50 μl of the compound solutions. Measurements were made on a DNA Engine Opticon (MJ Research) with excitation at 450-495 nm and detection at 515-545 nm. Fluorescence readings were taken at intervals of 0.5° C. in the range 30-100° C., with a constant temperature being maintained for 30 s prior to each reading to ensure a stable value. Final analysis of the data was carried out using a script written in the program Origin 7.0 (OriginLab Corp., Northampton, Mass.). The advanced curve-fitting function in Origin 7.0 was used for calculation of ΔTm values. All determinations were performed in triplicate or better. Esds in ΔTm are ±0.1° C.

[2] = system: Hsp90A sequence from the HSP90 promoter; assay: FRET quadruplex stabilisation assay, Hsp90A; assay type: binding; conditions: compound at 1 μM, 60 mM potassium cacodylate buffer pH 7.4
Excerpt: as §1, §2

[3] = system: Hsp90B sequence from the HSP90 promoter; assay: FRET quadruplex stabilisation assay, Hsp90B; assay type: binding; conditions: compound at 1 μM, 60 mM potassium cacodylate buffer pH 7.4
Excerpt: as §1, §2

[4] = system: Kras21 sequence from the promoter region of the kras gene; assay: FRET quadruplex stabilisation assay, Kras21; assay type: binding; conditions: compound at 1 μM, 60 mM potassium cacodylate buffer pH 7.4
Excerpt: as §1, §2

[5] = system: Kras32 sequence from the promoter region of the kras gene; assay: FRET quadruplex stabilisation assay, Kras32; assay type: binding; conditions: compound at 1 μM, 60 mM potassium cacodylate buffer pH 7.4
Excerpt: as §1, §2

[6] = system: Bcl-2 sequence from the promoter region of the bcl-2 gene; assay: FRET quadruplex stabilisation assay, Bcl-2; assay type: binding; conditions: compound at 1 μM, 60 mM potassium cacodylate buffer pH 7.4
Excerpt: as §1, §2

[7] = system: Tloop (representing duplex DNA); assay: FRET assay, Tloop duplex DNA; assay type: binding; conditions: compound at 1 μM, 60 mM potassium cacodylate buffer pH 7.4
Excerpt: as §1, §2

A549 (lung cancer) cells = assay: SRB growth inhibition, A549; assay type: cell-based, human; conditions: 96 hr, SRB assay; read-out: short-term 96 hr IC50 A549
Description: (§3) Human cancer cell lines and the somatic human cell line WI-38 (lung fibroblast) were purchased from the American Type Culture Collection. Cell lines were maintained in appropriate medium supplemented with 10% foetal bovine serum (Invitrogen, UK), 2 mM L-glutamine (Invitrogen, Netherlands), and other components as specified by the suppliers. Cell lines were maintained at 37° C., 5% CO2 and routinely passaged. Drugs were dissolved in DMSO and filtered through 0.22 μm pore-size filter units before addition to cell line appropriate media. Cellular growth inhibition was measured using the sulforhodamine B (SRB) assay in 96 well plates. Fifty percent inhibitory concentrations (IC50) were determined by taking the mean absorbance at 540 nm for each drug concentration expressed as a percentage of the absorbance of untreated control wells.

MCF7 (breast) cells = assay: SRB growth inhibition, MCF7; assay type: cell-based, human; conditions: 96 hr, SRB assay; read-out: short-term 96 hr IC50 MCF7
Description: as §3

[8] = system: Mia-PaCa2 (pancreatic cancer) cells; assay: SRB growth inhibition, MiaPaCa2; assay type: cell-based, human; conditions: 96 hr, SRB assay; read-out: short-term 96 hr IC50 MiaPaCa2
Description: as §3

[9] = system: Panc1 (pancreatic cancer) cells; assay: SRB growth inhibition, Panc1; assay type: cell-based, human; conditions: 96 hr, SRB assay; read-out: short-term 96 hr IC50 Panc1
Description: as §3

[10] = system: ALT (Alternative Lengthening of Telomeres) cell line; assay: SRB growth inhibition, ALT; assay type: cell-based, human; conditions: 96 hr, SRB assay; read-out: short-term 96 hr IC50 ALT
Description: as §3

[11] = system: WI38 (lung fibroblast) cells; assay: SRB growth inhibition, WI38; assay type: cell-based, human; conditions: 96 hr, SRB assay; read-out: short-term 96 hr IC50 WI38
Description: as §3

Compound | ΔTm F21T [1] [°C] | ΔTm Hsp90A [2] [°C] | ΔTm Hsp90B [3] [°C] | ΔTm Kras21 [4] [°C] | ΔTm Kras32 [5] [°C] | ΔTm Bcl-2 [6] [°C] | ΔTm Tloop [7] [°C] | IC50 (A549 (lung cancer) cells) [µM] | IC50 (MCF7 (breast) cells) [µM] | IC50 [8] [µM] | IC50 [9] [µM] | IC50 [10] [µM] | IC50 [11] [µM]
CN1CCN(CCCNc2cc3c4c(c(NCCCN5CCN(C)CC5)cc5c4c2C(=O)N(CCCN2CCOCC2)C5=O)C(=O)N(CCCN2CCOCC2)C3=O)CC1 [MM41, 4,9-bis((3-(4-methylpiperazine-1-yl)-propyl)amino)-2,7-bis(3-morpholinopropyl)benzo[Imn][3,8]phenanthroline-1,3,6,8(2H,7H)-tetraone, reference compound] | 26.6 | 33.1 | 28.6 | 22.5 | 19.8 | 26.4 | 4.9 | 0.019 | 0.07 | 0.011 | 0.003 | 0.063 | 0.23
O=C1c2ccc3c4c(c(NCCN5CCCCC5)cc(c24)C(=O)N1CCCN1CCOCC1)C(=O)N(CCCN1CCOCC1)C3=O [Compound 4f, 2,7-bis(3-morpholinopropyl)-4-((2-(piperidin-1-yl)ethyl)amino)benzo[Imn][3,8]phenanthroline-1,3,6,8(2H,7H)-tetraone] | 9.8 | 9.1 | 8.7 | 4.8 | 2.2 | 5.9 | 0.6 | 0.198 | 1.11 | 0.108 | 0.084 | 0.535 | 5.33
